The source of these data is patent US20100279995A1, “Novel Ansamycin Derivatives” (priority 2005, published 2010).

The nature of series [1]: Cleavage assay in phosphate buffer. Format: physicochemical. As to conditions: cleavage to 18,21-dihydromacbecin. The procedure:
(§1) Cleavage Assays for Pro-Drugs of 18,21-dihydromacbecin
(§2) Assays to determine the rate of cleavage of the pro-drugs into their parent compounds were performed as described herein. These were carried out in plasma, blood or buffer. Mixed mouse, human or mixed rat plasma containing EDTA or heparin as an anti-coagulant was used or whole defibrinated rabbit blood (mouse and rat plasma and rabbit blood were obtained from Harlan-Sera Labs, human plasma was obtained from Biopredic International).
The stability of the test compounds in phosphate-buffered saline (PBS) of specific pH over the course of each experiment was also analysed using the same methodology.
After the final time point was sampled, the samples were extracted as follows. For each time point sample an Oasis MCX (3 cc/60 mg) or Oasis HLB (333/60 mg) cartridge was conditioned and equilibrated with 2 mL methanol followed by 2 mL water. 1.5 mL water and an internal standard (IS) at 0.002 mg/mL were added to each 0.4 mL plasma sample. This was loaded to the cartridge. The cartridge was washed with 2 mL water and the analytes were eluted in 2 ml MeOH. This extract was analysed without further treatment by LC/MS using the conditions described below.
The cleavage of compounds 1-3 was also measured in phosphate buffer as described in the General Methods—Cleavage Assay above at pH 7.2 and pH 7.4 and T1/2 values calculated as indicated in Table 5 below.

Series [2] in a line: Cleavage assay in whole defibrinated rabbit blood. Format: in vitro ADME. The procedure: as §1, §2
If using whole blood such as defibrinated whole rabbit blood the following protocol was used: The blood was thawed at 37° C. in a water bath. Blood was dispensed into individual 20 mL tubes for each test compound allowing 0.5 mL for each time point to be analysed. A tube containing blood was also included as a control. These tubes were incubated for 15 minutes at 37° C.
Each test compound was reconstituted in DMSO or other appropriate solvent. The blood was removed from the water bath and the compound was added to give a final concentration of 0.001-0.010 mg/mL keeping the final concentration of solvent below 5%. In the case of the control, an equivalent volume of DMSO or other solvent was added. Immediately after the addition of compound a 0.4 mL sample was taken from the tube, transferred to a 2 mL microfuge tube. The plasma was promptly returned to the 37° C. water bath. 0.4 mL samples were taken at regular time points (e.g. after 30 min and then hourly) and were immediately frozen at −80° C. To each 0.4 mL sample in its 2 mL microfuge tube was added 1.5 mL of 0.1 M potassium dihydrogen phosphate, this was inverted to mix. A stable internal standard (IS) in acetonitrile was added at 0.002 mg/mL. This was agitated for 5 min on an IKA shaker at 1500 rpm. Centrifugation at 5000 rpm for 5 min lead to a dense pellet made up of red blood cells and precipitated protein, and a pink/red supernatant. An Oasis HLB (333/60 mg) cartridge was equilibrated with 2 mL of methanol followed by 2 mL of water. […]
The HPLC conditions were: 10% B for 1 min followed by a linear gradient to 100% B over a period of 7 min and an isocratic period of 2 min at 100% B. The analytes were detected by UV absorbance at 255 nm and mass spectrometry using a Bruker Daltonics Esquire 3000+ mass spectrometer coupled to the HPLC. The analytes were quantified based on the extracted ion chromatogram. To ensure a reliable quantification, the linear response of the mass spectrometer was checked for the concentration range of interest.
Each compound was assessed for cleavage to 18,21-dihydromacbecin as follows. […] The samples were applied to a cartridge described above and analysed immediately using Analysis Method C.

The test system of another series is PRXF DU-145 xenografts. Kind of series: In vivo evaluation of antitumor efficacy in PRXF DU-145 xenografts. More on the design: species or system nude mice. As to conditions: 60 mg/kg/d i.p. on Days 0-4, 7-11, 14-18, 21, 24, 25, 28 and 29; recorded on day 31; p<0.001 vs vehicle control.
The subject of the next series is A498. Kind of series: Monolayer proliferation assay (modified propidium iodide). Format: cell-based, human. As to conditions: 4 days exposure. The source says: (§3) In vitro evaluation of compounds for anticancer activity in a panel of 12 human tumour cell lines in a monolayer proliferation assay may be carried out at the Oncotest Testing Facility, Institute for Experimental Oncology, Oncotest GmbH, Freiburg.
(§4) The Oncotest cell lines were established from human tumor xenografts as described by Roth et al., (1999). The origin of the donor xenografts is described by Fiebig et al., (1999). Other cell lines were either obtained from the NCI (H460, SF-268, OVCAR-3, DU145, MDA-MB-231, MDA-MB-468) or purchased from DSMZ, Braunschweig, Germany (LNCAP).
(§5) All cell lines, unless otherwise specified, were grown at 37° C. in a humidified atmosphere (95% air, 5% CO2) in a ‘ready-mix’ medium containing RPMI 1640 medium, 10% fetal calf serum, and 0.1 mg/mL gentamicin (PAA, Cölbe, Germany).
(§6) A modified propidium iodide assay was used to assess the effects of the test compound(s) on the growth of twelve human tumour cell lines (Dengler et al., (1995)).
(§7) Briefly, cells were harvested from exponential phase cultures by trypsinization, counted and plated in 96 well flat-bottomed microtitre plates at a cell density dependent on the cell line (5-10.000 viable cells/well). After 24 h recovery to allow the cells to resume exponential growth, 0.010 mL of culture medium (6 control wells per plate) or culture medium containing macbecin was added to the wells. Each concentration was plated in triplicate. Compounds were applied in two concentrations (0.001 mM and 0.01 mM). Following 4 days of continuous exposure, cell culture medium with or without test compound is replaced by 0.2 mL of an aqueous propidium iodide (PI) solution (7 mg/L). To measure the proportion of living cells, cells are permeabilized by freezing the plates. After thawing the plates, fluorescence was measured using the Cytofluor 4000 microplate reader (excitation 530 nm, emission 620 nm), giving a direct relationship to the total number of viable cells.
(§8) Growth inhibition is expressed as treated/control×100 (% T/C).
(§9) In vitro evaluation of macbecin for anticancer activity in a panel of 12 human tumor cell lines in a monolayer proliferation assay was carried out as described in the general methods using a modified propidium iodide assay.

In a further series the test system is DU145. The series is described as above. As to conditions: 4 days exposure. Format: cell-based, human.
Excerpt: as §3, §4, §5, §6, §7, §8, §9

For a further series, the system named is GXF 251L. Described as above. Format: cell-based, human. As to conditions: 4 days exposure.
Excerpt: as §3, §4, §5, §6, §7, §8, §9

The subject of the next series is LNCAP. The description is as above. Format: cell-based, human. The conditions noted are these: 4 days exposure.
Excerpt: as §3, §4, §5, §6, §7, §8, §9

Another series deals with MCF-7. The series is described as above. Format: cell-based, human. As to conditions: MCF7, 4 days exposure.
Excerpt: as §3, §4, §5, §6, §7, §8, §9

The subject of the next series is MDA-MB-231. The description is as above. As to conditions: MDA231, 4 days exposure. Format: cell-based, human.
Excerpt: as §3, §4, §5, §6, §7, §8, §9

The subject of another series is MDA-MB-468. The description is as above. Format: cell-based, human. As to conditions: MDA468, 4 days exposure.
Excerpt: as §3, §4, §5, §6, §7, §8, §9

The subject of another series is MEXF 394NL. The description is as above. The conditions noted are these: 4 days exposure. Format: cell-based, human.
Excerpt: as §3, §4, §5, §6, §7, §8, §9

The subject of the next series is NCI-H460. Described as above. Format: cell-based, human. As to conditions: 4 days exposure.
Excerpt: as §3, §4, §5, §6, §7, §8, §9

A further series concerns OVCAR-3. Described as above. Format: cell-based, human. The conditions noted are these: OVCAR3, 4 days exposure.
Excerpt: as §3, §4, §5, §6, §7, §8, §9

In a further series the test system is SF-268. The description is as above. Format: cell-based, human. The conditions noted are these: SF268, 4 days exposure.
Excerpt: as §3, §4, §5, §6, §7, §8, §9

For another series, the system named is UXF 1138L. The description is as above. Format: cell-based, human. The conditions noted are these: 4 days exposure.
Excerpt: as §3, §4, §5, §6, §7, §8, §9

The next series concerns Reverse transcriptase. The conditions noted are these: Ono et al., 1982; cited from earlier work.
Series [3] concerns the target terminal deoxynucleotidyl transferase (Homo sapiens, UniProt P04053). As to conditions: Ono et al., 1982; cited from earlier work.
[4] abbreviates: Phosphate Buffer pH 7.2 (37° C.).
Where [5] appears, read: Phosphate Buffer pH 7.4 (37° C.).
The mark [6] stands for this setting: Rabbit blood pH 7.3 (37° C.) Run 1.

Sequence of terminal deoxynucleotidyl transferase (P04053 whole entry, species assumed): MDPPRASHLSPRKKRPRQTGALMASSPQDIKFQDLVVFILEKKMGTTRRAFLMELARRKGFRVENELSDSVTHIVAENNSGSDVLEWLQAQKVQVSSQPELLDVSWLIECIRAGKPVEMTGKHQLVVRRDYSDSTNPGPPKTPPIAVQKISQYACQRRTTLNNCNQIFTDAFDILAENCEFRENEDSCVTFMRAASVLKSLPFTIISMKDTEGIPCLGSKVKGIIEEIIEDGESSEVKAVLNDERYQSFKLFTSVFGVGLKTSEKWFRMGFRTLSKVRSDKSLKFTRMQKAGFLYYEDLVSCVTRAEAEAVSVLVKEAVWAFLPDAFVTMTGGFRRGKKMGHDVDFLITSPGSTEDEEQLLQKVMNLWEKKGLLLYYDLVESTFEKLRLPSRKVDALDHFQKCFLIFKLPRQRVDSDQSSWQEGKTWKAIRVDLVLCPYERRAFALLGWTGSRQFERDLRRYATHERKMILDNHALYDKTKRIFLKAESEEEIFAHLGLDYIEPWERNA

Take “18-O—(N,N′-diethylethylenediamine-N′-carbamoyl)-18,21-dihydromacbecin Hydrochloride Salt [Compound 3]”: the values for the t1/2 in series [1] (setting [4]), in series [1] (setting [5]) and in series [2] (setting [6]) were 4.6 h, 2.67 h and 2.67 h, respectively.
As for “18-O—(N,N′-dimethylethylenediamine-N′-carbamoyl)-18,21-dihydromacbecin Hydrochloride Salt [Compound 1]”, the t1/2 in series [1] (setting [4]) worked out at 1.07 h; in series [1] (setting [5]), 0.817 h; in series [2] (setting [6]) it was 0.75 h; in series [2] (Rabbit blood pH 7.3 (37° C.) Run 2), 0.817 h. Also, the “minimum T/C value” in the series with PRXF DU-145 xenografts worked out at 24.3%.
For `CNCCNC(=O)Oc1cc2c(O)c(c1)C(OC)C(C)CC(OC)C(OC)C(C)C=C(C)C(OC(N)=O)C(C)C=CC=C(C)C(=O)N2.Cl` (stereo not shown) [Compound 2, 18-O—(N-methylethylenediamine-N′-carbamoyl)-18,21-dihydromacbecin Hydrochloride Salt], the values for the t1/2 in [1] (setting [4]), in [1] (setting [5]) and in [2] (setting [6]) were 10.4 h, 2.12 h and 2.55 h, respectively.
In the case of `CO[C@H]1[C@@H](OC)C[C@H](C)[C@@H](OC)C2=CC(=O)C=C(NC(=O)/C(C)=C/C=C\[C@@H](C)[C@@H](OC(N)=O)/C(C)=C/[C@@H]1C)C2=O` [macbecin], the “Test/Control (%) at drug concentration” value in the series with A498 (1 × 10−5 M) is listed as 82%; with A498 (1 × 10−6 M), 107.5%; in the series on DU145 (1 × 10−5 M), 14.5%; in the series with DU145 (1 × 10−6 M), 42%; in the series on GXF 251L (1 × 10−5 M), 37%; in the series with GXF 251L (1 × 10−6 M) it was 61%. Further, the “Test/Control (%) at drug concentration” value worked out at 27.5% with LNCAP (1 × 10−5 M); 43.5% in the series with LNCAP (1 × 10−6 M); 12% with MCF-7 (1 × 10−5 M); 35.5% in the series with MCF-7 (1 × 10−6 M); 34% in the series on MDA-MB-231 (1 × 10−5 M); 88% in the series with MDA-MB-231 (1 × 10−6 M). Besides, the “Test/Control (%) at drug concentration” value in the series with MDA-MB-468 (1 × 10−5 M) turned out to be 4%; in the series with MDA-MB-468 (1 × 10−6 M), 14.5%; with MEXF 394NL (1 × 10−5 M), 17%; in the series with MEXF 394NL (1 × 10−6 M), 21%; in the series with NCI-H460 (1 × 10−5 M), 21.5%; in the series on NCI-H460 (1 × 10−6 M) it was 110%. The “Test/Control (%) at drug concentration” value in the series on OVCAR-3 (1 × 10−5 M) was 37.5%; in the series with OVCAR-3 (1 × 10−6 M), 71%; with SF-268 (1 × 10−5 M), 20.5%; with SF-268 (1 × 10−6 M), 95.5%; with UXF 1138L (1 × 10−5 M) it was 19%; in the series on UXF 1138L (1 × 10−6 M), 75.5%. In addition, the “Reverse transcriptase activity inhibition” value in the series on Reverse transcriptase was “not inhibited”. The “terminal deoxynucleotidyl transferase activity inhibition” value in [3] is “not inhibited”.
